Experimental data from the Kinase Knowledgebase extract (Sharma et al. 2016).

molecular target: EGFR (human) (UniProt P00533)
Sequence (P00533 whole entry, looked up): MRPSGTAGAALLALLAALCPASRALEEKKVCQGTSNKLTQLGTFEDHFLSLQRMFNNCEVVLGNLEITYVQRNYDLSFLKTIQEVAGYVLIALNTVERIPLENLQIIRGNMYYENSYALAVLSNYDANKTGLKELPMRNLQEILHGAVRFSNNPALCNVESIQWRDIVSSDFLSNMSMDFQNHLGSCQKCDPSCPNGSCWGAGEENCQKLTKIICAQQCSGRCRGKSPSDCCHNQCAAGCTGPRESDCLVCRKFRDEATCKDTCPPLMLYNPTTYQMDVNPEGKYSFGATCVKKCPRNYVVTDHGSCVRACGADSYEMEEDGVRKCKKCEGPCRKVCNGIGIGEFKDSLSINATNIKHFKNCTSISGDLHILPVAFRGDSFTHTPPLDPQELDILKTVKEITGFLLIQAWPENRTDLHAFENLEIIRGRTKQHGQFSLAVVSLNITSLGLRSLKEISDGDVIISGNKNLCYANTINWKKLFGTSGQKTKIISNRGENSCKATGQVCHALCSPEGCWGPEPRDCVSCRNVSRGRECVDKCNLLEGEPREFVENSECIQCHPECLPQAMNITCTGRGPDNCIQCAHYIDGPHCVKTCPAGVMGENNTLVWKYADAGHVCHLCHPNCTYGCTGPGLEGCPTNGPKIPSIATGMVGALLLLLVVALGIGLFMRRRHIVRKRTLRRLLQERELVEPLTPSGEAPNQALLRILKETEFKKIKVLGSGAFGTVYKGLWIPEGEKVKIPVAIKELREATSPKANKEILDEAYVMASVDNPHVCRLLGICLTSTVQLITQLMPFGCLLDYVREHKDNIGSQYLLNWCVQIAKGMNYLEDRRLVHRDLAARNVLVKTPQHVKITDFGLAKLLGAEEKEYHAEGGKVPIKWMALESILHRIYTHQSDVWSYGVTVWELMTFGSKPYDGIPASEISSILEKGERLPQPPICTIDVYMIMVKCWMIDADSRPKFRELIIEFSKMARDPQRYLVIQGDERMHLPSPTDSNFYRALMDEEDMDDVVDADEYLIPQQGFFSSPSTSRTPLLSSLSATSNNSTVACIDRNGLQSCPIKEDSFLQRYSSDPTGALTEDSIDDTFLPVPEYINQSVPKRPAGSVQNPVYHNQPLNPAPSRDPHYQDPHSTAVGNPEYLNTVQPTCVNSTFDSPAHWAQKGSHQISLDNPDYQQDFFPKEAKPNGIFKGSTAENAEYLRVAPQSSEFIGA

Nc1ncc(-c2cccc(CN[C@@H]3c4ccccc4C[C@@H]3O)c2)nc1C(=O)N[C@H]1CCCNC1 and Nc1ncc(-c2cccc(CNC(=O)c3ccc(F)cc3)c2)nc1C(=O)N[C@H]1CCCNC1 fall in the same range of IC50: 1 to 10 µM for the first, 1 to 10 µM for the second.

Nc1ncc(-c2cccc(CNC(=O)c3cccs3)c2)nc1C(=O)N[C@H]1CCCNC1 and Nc1ncc(-c2cccc(C(=O)NCc3ccc(Cl)cc3)c2)nc1C(=O)N[C@H]1CCCNC1 cannot be ordered by IC50: 1 to 10 µM for the first, at least 10 µM for the second.

Nc1ncc(-c2cccc(CNC(=O)Nc3ccc(-c4ccccc4)cc3)c2)nc1C(=O)N[C@H]1CCCNC1 and Nc1ncc(-c2cccc(NC(=O)c3cnc4ccccc4c3)c2)nc1C(=O)N[C@H]1CCCNC1 cannot be ordered by IC50: at least 10 µM for the first, 1 to 10 µM for the second.

Cc1ccc(CNC(=O)c2cccc(-c3cnc(N)c(C(=O)N[C@H]4CCCNC4)n3)c2)c(F)c1F and Nc1ncc(-c2cccc(C(=O)NCc3ccc(Cl)cc3F)c2)nc1C(=O)N[C@H]1CCCNC1 cannot be ordered by IC50: at least 10 µM for the first, at least 10 µM for the second.

First: Nc1ncc(-c2cccc(NC(=O)Cc3ccc(F)cc3F)c2)nc1C(=O)N[C@H]1CCCNC1
Second: COc1ccc(CNC(=O)c2cccc(-c3cnc(N)c(C(=O)N[C@H]4CCCNC4)n3)c2)cc1
The IC50 of the first is lower: 0.05 to 1 µM for the first, at least 10 µM for the second. The first is the more potent here.

Nc1ncc(-c2cccc(C(=O)NCc3ccc(OC(F)(F)F)cc3)c2)nc1C(=O)N[C@H]1CCCNC1 and CN(C)c1ccc(CNC(=O)c2cccc(-c3cnc(N)c(C(=O)N[C@H]4CCCNC4)n3)c2)cc1 cannot be ordered by IC50: at least 10 µM for the first, at least 10 µM for the second.

Work on CCNCCOc1cccc(-c2cnc(N)c(C(=O)N[C@H]3CCCNC3)n2)c1 yielded an IC50 of 1 to 10 µM.
